Key:
[1] = tested on: AsPC-1 (G12D); assay: In vitro cell proliferation inhibition test (CellTiter-Glo), AsPC-1; type: cell-based; conditions: KRAS (p.G12D), 72 h co-incubation
Method in brief: (§1)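 Cells were seeded at 1000-5000/well by doubling time and cultured overnight at 37 °C, 5% CO2. They were then exposed for 72 h to 10-point, 3-fold compound dilutions (final top 10 μM), and viability was read by CellTiter-Glo luminescence. IC50 came from normalized signals fitted by four-parameter regression.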

[2] = tested on: SW480 (G12V); assay: In vitro cell proliferation inhibition test (CellTiter-Glo), SW480; type: cell-based; conditions: SW480 colon cell line, KRAS (p.G12V), 72 h co-incubation
Method in brief: as §1

[3] = Homo sapiens, ASPC1, AsPC-1 pancreas cell line

Molecule | IC50 ([1]; AsPC-1 pancreas cell line) | IC50 [2] | IC50 [1, 3] | IC50 ([2]; Homo sapiens)
CCn1c(-c2cc(-c3cc(C4CCN(C)C4)on3)cnc2C(C)OC)c2c3cc(ccc31)-c1csc(n1)CC(NC(=O)C1C(C)C1C)C(=O)N1CCCC(N1)C(=O)OCC(C)(C)C2 [Compound 29′, (1r,2R,3S)-N-((6^3S,4S,Z)-1^1-ethyl-1^2-(2-((S)-1-methoxyethyl)-5-(5-((R)-1-methylpyrrolidin-3-yl)isoxazol-3-yl)pyridin-3-yl)-10,10-dimethyl-5,7-dioxo-6^1,6^2,6^3,6^4,6^5,6^6-hexahydro-1^1H-8-oxa-2(4,2)-thiazola-1(5,3)-indola-6(1,3)-pyridazinacycloundecaphane-4-yl)-2,3-dimethylcyclopropane-1-carboxamide] | 5.3 nM | 11.4 nM |  | 
CCn1c(-c2cc(-c3cnc(CN4CCOCC4)nc3)cnc2[C@H](C)OC)c2c3cc(ccc31)-c1csc(n1)C[C@H](NC(=O)[C@H]1[C@H](C)[C@@H]1C)C(=O)N1CCC[C@H](N1)C(=O)OCC(C)(C)C2 (atropisomer, axis not shown) [Compound 39, (1r,2R,3S)-N-((6^3S,4S,Z)-1^1-ethyl-1^2-(2-((S)-1-methoxyethyl)-5-(2-(morpholinomethyl)pyrimidin-5-yl)pyridin-3-yl)-10,10-dimethyl-5,7-dioxo-6^1,6^2,6^3,6^4,6^5,6^6-hexahydro-1H-8-oxa-2(4,2)-thiazola-1(5,3)-indola-6(1,3)-pyridazinacycloundecaphane-4-yl)-2,3-dimethylcyclopropane-1-carboxamide] |  |  | 0.57 nM | 0.48 nM
CCn1c(-c2cc(-c3cnc(OC)nc3)cnc2[C@H](C)OC)c2c3cc(ccc31)-c1csc(n1)C[C@H](NC(=O)[C@H]1C[C@@H]1C)C(=O)N1CCC[C@H](N1)C(=O)OCC(C)(C)C2 (atropisomer, axis not shown) [Compound 57, (1S,2S)-N-((6^3S,4S,Z)-1^1-ethyl-1^2-(2-((S)-1-methoxyethyl)-5-(2-methoxypyrimidin-5-yl)pyridin-3-yl)-10,10-dimethyl-5,7-dioxo-6^1,6^2,6^3,6^4,6^5,6^6-hexahydro-1H-8-oxa-2(4,2)-thiazola-1(5,3)-indola-6(1,3)-pyridazinacycloundecaphane-4-yl)-2-methylcyclopropane-1-carboxamide] |  |  | 5.6 nM | 4.6 nM
CCn1c(-c2cc(-c3ncc(CN4CCOCC4)cn3)cnc2[C@H](C)OC)c2c3cc(ccc31)-c1csc(n1)C[C@H](NC(=O)C1C[C@@H]1C)C(=O)N1CCC[C@H](N1)C(=O)OCC(C)(C)C2 (stereo partly drawn) [Compound 14, (1S,2S)-N-((6^3S,4S,Z)-1^1-ethyl-1^2-(2-((S)-1-methoxyethyl)-5-(5-(morpholinomethyl)pyrimidin-2-yl)pyridin-3-yl)-10,10-dimethyl-5,7-dioxo-6^1,6^2,6^3,6^4,6^5,6^6-hexahydro-1^1H-8-oxa-2(4,2)-thiazola-1(5,3)-indola-6(1,3)-pyridazinacycloundecaphane-4-yl)-2-methylcyclopropane-1-carboxamide] |  |  | 1.7 nM | 2.8 nM
CCn1c(-c2cc(-c3cc([C@@H]4CCCN4C)on3)cnc2[C@H](C)OC)c2c3cc(ccc31)-c1csc(n1)C[C@H](NC(=O)[C@H]1C[C@@H]1C)C(=O)N1CCC[C@H](N1)C(=O)OCC(C)(C)C2 (atropisomer, axis not shown) [Compound 25, (1S,2S)-N-((6^3S,4S,Z)-1^1-ethyl-1^2-(2-((S)-1-methoxyethyl)-5-(5-((S)-1-methylpyrrolidin-2-yl)isoxazol-3-yl)pyridin-3-yl)-10,10-dimethyl-5,7-dioxo-6^1,6^2,6^3,6^4,6^5,6^6-hexahydro-1^1H-8-oxa-2(4,2)-thiazola-1(5,3)-indola-6(1,3)-pyridazinacycloundecaphane-4-yl)-2-methylcyclopropane-1-carboxamide] |  |  | 20 nM | 22 nM
CCn1c(-c2cc(-c3cnc(N4CCN(C)CC4)nc3)cnc2[C@H](C)OC)c2c3cc(ccc31)-c1csc(n1)C[C@H](NC(=O)[C@H]1C[C@@H]1C)C(=O)N1CCC[C@H](N1)C(=O)OCC(C)(C)C2 (atropisomer, axis not shown) [Compound 54, (1S,2S)-N-((6^3S,4S,Z)-1^1-ethyl-1^2-(2-((S)-1-methoxyethyl)-5-(2-(4-methylpiperazin-1-yl)pyrimidin-5-yl)pyridin-3-yl)-10,10-dimethyl-5,7-dioxo-6^1,6^2,6^3,6^4,6^5,6^6-hexahydro-1^1H-8-oxa-2(4,2)-thiazola-1(5,3)-indola-6(1,3)-pyridazinacycloundecaphane-4-yl)-2-methylcyclopropane-1-carboxamide] |  |  | 2.2 nM | 5.7 nM
CCn1c(-c2cc(-c3cc([C@@H]4CCN(C)C4)on3)cnc2[C@H](C)OC)c2c3cc(ccc31)-c1csc(n1)C[C@H](NC(=O)[C@H]1[C@H](C)[C@@H]1C)C(=O)N1CCC[C@H](N1)C(=O)OCC(C)(C)C2 (atropisomer, axis not shown) [Compound 29, (1r,2R,3S)-N-((6^3S,4S,Z)-1^1-ethyl-1^2-(2-((S)-1-methoxyethyl)-5-(5-((R)-1-methylpyrrolidin-3-yl)isoxazol-3-yl)pyridin-3-yl)-10,10-dimethyl-5,7-dioxo-6^1,6^2,6^3,6^4,6^5,6^6-hexahydro-1^1H-8-oxa-2(4,2)-thiazola-1(5,3)-indola-6(1,3)-pyridazinacycloundecaphane-4-yl)-2,3-dimethylcyclopropane-1-carboxamide] |  |  | 3.2 nM | 10 nM
CCn1c(-c2cc(-c3cn(CC4CCN(C)CC4)nn3)cnc2C(C)OC)c2c3cc(ccc31)-c1csc(n1)C[C@H](NC(=O)[C@H]1C[C@@H]1C)C(=O)N1CCC[C@H](N1)C(=O)OCC(C)(C)C2 (stereo partly drawn) [Compound 65, (1S,2S)-N-((6^3S,4S,Z)-1^1-ethyl-1^2-(2-((S)-1-methoxyethyl)-5-(1-((1-methylpiperidin-4-yl)methyl)-1H-1,2,3-triazol-4-yl)pyridin-3-yl)-10,10-dimethyl-5,7-dioxo-6^1,6^2,6^3,6^4,6^5,6^6-hexahydro-1^1H-8-oxa-2(4,2)-thiazola-1(5,3)-indola-6(1,3)-pyridazinacycloundecaphane-4-yl)-2-methylcyclopropane-1-carboxamide] |  |  | 12 nM | 150 nM
CCn1c(-c2cc(-c3cnc(N(C)C)nc3)cnc2[C@H](C)OC)c2c3cc(ccc31)-c1csc(n1)C[C@H](NC(=O)[C@H]1C[C@@H]1C)C(=O)N1CCC[C@H](N1)C(=O)OCC(C)(C)C2 (atropisomer, axis not shown) [Compound 59, (1S,2S)-N-((6^3S,4S,Z)-1^2-(5-(2-(dimethylamino)pyrimidin-5-yl)-2-((S)-1-methoxyethyl)pyridin-3-yl)-1^1-ethyl-10,10-dimethyl-5,7-dioxo-6^1,6^2,6^3,6^4,6^5,6^6-hexahydro-1^1H-8-oxa-2(4,2)-thiazola-1(5,3)-indola-6(1,3)-pyridazinacycloundecaphane-4-yl)-2-methylcyclopropane-1-carboxamide] |  |  | 3 nM | 6.2 nM
CCn1c(-c2cc(-c3ccc(=O)n(CCN4CCOCC4)c3)cnc2[C@H](C)OC)c2c3cc(ccc31)-c1csc(n1)C[C@H](NC(=O)[C@H]1C[C@@H]1C)C(=O)N1CCC[C@H](N1)C(=O)OCC(C)(C)C2 (atropisomer, axis not shown) [Compound 40, (1S,2S)-N-((6^3S,4S,Z)-1^1-ethyl-1^2-(6-((S)-1-methoxyethyl)-1′-(2-morpholinoethyl)-6′-oxo-1′,6′-dihydro-[3,3′-bipyridin]-5-yl)-10,10-dimethyl-5,7-dioxo-6^1,6^2,6^3,6^4,6^5,6^6-hexahydro-1^1H-8-oxa-2(4,2)-thiazola-1(5,3)-indola-6(1,3)-pyridazinacycloundecaphane-4-yl)-2-methylcyclopropane-1-carboxamide] |  |  | 9.2 nM | 10 nM
(1r,2R,3S)-N-((6^3S,4S,Z)-1^1-ethyl-1^2-(2-((S)-1-methoxyethyl)-5-(1-(2-(4-methylpiperazin-1-yl)ethyl)-1H-pyrazol-4-yl)pyridin-3-yl)-10,10-dimethyl-5,7-dioxo-6^1,6^2,6^3,6^4,6^5,6^6-hexahydro-1^1H-8-oxa-2(4,2)-thiazola-1(5,3)-indola-6(1,3)-pyridazinacycloundecaphane-4-yl)-2,3-dimethylcyclopropane-1-carboxamide [Compound 19′] | 33 nM | 16 nM |  | 
CCn1c(-c2cc(-c3ccc(CN4CCN(C)CC4)cc3)cnc2[C@H](C)OC)c2c3cc(ccc31)-c1csc(n1)C[C@H](NC(=O)[C@H]1C[C@@H]1C)C(=O)N1CCC[C@H](N1)C(=O)OCC(C)(C)C2 (atropisomer, axis not shown) [Compound 8, (1S,2S)-N-((6^3S,4S,Z)-1^1-ethyl-1^2-(2-((S)-1-methoxyethyl)-5-(4-((4-methylpiperazin-1-yl)methyl)phenyl)pyridin-3-yl)-10,10-dimethyl-5,7-dioxo-6^1,6^2,6^3,6^4,6^5,6^6-hexahydro-1^1H-8-oxa-2(4,2)-thiazola-1(5,3)-indola-6(1,3)-pyridazinacycloundecaphane-4-yl)-2-methylcyclopropane-1-carboxamide] |  |  | 0.7 nM | 1.4 nM
CCn1c(-c2cc(-c3cc(C4CN(C)C4)on3)cnc2[C@H](C)OC)c2c3cc(ccc31)-c1csc(n1)C[C@H](NC(=O)[C@H]1C[C@@H]1C)C(=O)N1CCC[C@H](N1)C(=O)OCC(C)(C)C2 (atropisomer, axis not shown) [Compound 31, (1S,2S)-N-((6^3S,4S,Z)-1^1-ethyl-1^2-(2-((S)-1-methoxyethyl)-5-(5-(1-methylazetidin-3-yl)isoxazol-3-yl)pyridin-3-yl)-10,10-dimethyl-5,7-dioxo-6^1,6^2,6^3,6^4,6^5,6^6-hexahydro-1^1H-8-oxa-2(4,2)-thiazola-1(5,3)-indola-6(1,3)-pyridazinacycloundecaphane-4-yl)-2-methylcyclopropane-1-carboxamide] |  |  | 1.6 nM | 2 nM
